Key:
c-Cbl = c-Cbl (Homo sapiens (Human), UniProt P22681); assay: C-Cbl LCK Ub TR-FRET assay (C-cbl Lck HTRF); format: biochemical
Procedure, shortened: (§1)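 After the ubiquitination reaction, detection mixture was added and plates incubated 20 min at room temperature before reading. IC50 values were calculated with wells lacking LCK as the low control and DMSO as the high control.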

Cbl-b = Cbl-b (Homo sapiens (Human), UniProt Q13191); assay: Cbl-b LCK Ub TR-FRET assay (Cbl-b Lck HTRF); format: biochemical; settings: for IC50: Cbl-b LCK Ub TR-FRET; for fold-selectivity (Cbl-b over C-cbl) / (fold-selectivity) Cbl-b and C-Cbl Selectivity: ratio C-cbl Lck HTRF IC50 / Cbl-b Lck HTRF IC50
Chain of Cbl-b (Q13191 40-426): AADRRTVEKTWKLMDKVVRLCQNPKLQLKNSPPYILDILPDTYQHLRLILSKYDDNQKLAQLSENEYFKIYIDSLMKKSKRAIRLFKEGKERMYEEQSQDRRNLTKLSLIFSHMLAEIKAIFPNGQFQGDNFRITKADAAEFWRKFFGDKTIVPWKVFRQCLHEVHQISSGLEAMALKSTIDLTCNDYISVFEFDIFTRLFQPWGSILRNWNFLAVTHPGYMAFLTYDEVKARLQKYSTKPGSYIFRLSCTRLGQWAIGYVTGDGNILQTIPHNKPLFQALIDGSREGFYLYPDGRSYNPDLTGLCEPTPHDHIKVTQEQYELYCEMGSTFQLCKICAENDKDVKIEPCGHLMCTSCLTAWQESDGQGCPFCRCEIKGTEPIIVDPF
Procedure, shortened: as §1

[1] = target: Human Cbl-b (residues 40-426) (Homo sapiens (Human), UniProt Q13191); assay: Cbl-b SPR assay; format: binding; settings: for Fold of selectivity: C-cbl SPR Kd vs Cbl-b SPR Kd; for Kd: SPR, 20° C.
Chain of Human Cbl-b (residues 40-426) (Q13191 40-426): as above
Procedure, shortened: (§2)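 Binding was measured by SPR and fitted to a 1:1 model from multi-cycle kinetics with double referencing, 6 concentrations in 2-fold dilution. Alternatively, single-cycle titrations up to 500 nM (120 s contact) were fitted with kd fixed from a single-exponential fit of chaser-measured % compound bound versus time.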

c-Cbl (residues 47-435) = c-Cbl (residues 47-435) (Homo sapiens (Human), UniProt P22681); assay: c-Cbl SPR assay; format: binding; settings: 20° C.
Chain of c-Cbl (residues 47-435) (P22681 47-435): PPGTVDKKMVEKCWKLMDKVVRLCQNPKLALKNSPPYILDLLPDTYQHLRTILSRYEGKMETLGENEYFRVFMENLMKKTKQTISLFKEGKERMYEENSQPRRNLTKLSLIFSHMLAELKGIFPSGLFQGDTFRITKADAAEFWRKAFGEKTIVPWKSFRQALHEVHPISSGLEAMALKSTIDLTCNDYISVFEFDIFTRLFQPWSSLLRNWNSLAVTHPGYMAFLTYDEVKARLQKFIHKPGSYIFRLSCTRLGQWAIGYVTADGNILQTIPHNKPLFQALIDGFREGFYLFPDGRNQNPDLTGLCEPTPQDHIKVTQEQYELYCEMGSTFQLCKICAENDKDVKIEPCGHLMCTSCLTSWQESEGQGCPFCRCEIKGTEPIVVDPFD
Procedure, shortened: as §2

Chain of c-Cbl (P22681 47-435): as above

Structure (SMILES) | IC50 (c-Cbl) | IC50 (Cbl-b) | fold-selectivity (Cbl-b over C-cbl) (Cbl-b) | Fold of selectivity [1] | Kd [1] | Kd (c-Cbl (residues 47-435)) | IC50 (Cbl-b; Example 121) | (fold-selectivity) Cbl-b and C-Cbl Selectivity (Cbl-b)
Cn1cnnc1[C@]1(c2cccc(N3Cc4c(cc(CNC5(C)CCC5)cc4C(F)(F)F)C3=O)c2)C[C@@](O)(C(F)(F)F)C1 [Compound 120, 2-(3-((1s,3s)-3-hydroxy-1-(4-methyl-4H-1,2,4-triazol-3-yl)-3-(trifluoromethyl)cyclobutyl)phenyl)-6-(((1-methylcyclobutyl)amino)methyl)-4-(trifluoromethyl)isoindolin-1-one] | 1.8 µM | 0.36 µM | 4.8 x | 6.8× | 0.18 µM | 1.4 µM |  | 
CO[C@H]1C[C@](c2cccc(N3Cc4c(cc(CN5CCCC5)cc4C(F)(F)F)C3=O)c2)(c2nncn2C)C1 [Compound 418, 2-(3-((1r,3r)-3-methoxy-1-(4-methyl-4H-1,2,4-triazol-3-yl)cyclobutyl)phenyl)-6-(pyrrolidin-1-ylmethyl)-4-(trifluoromethyl)isoindolin-1-one] | 1.4 µM |  |  | 8.7× | 0.14 µM | 1.2 µM | 0.18 µM | 7.3x
CC(C)[C@H]1CN(C)CCN1Cc1cc2c(c(C(F)(F)F)c1)CN(c1cc([C@]3(c4nncn4C)C[C@@H](C)C3)cc(NC3CCCC3)n1)C2=O [Compound 74, 2-(6-(cyclopentylamino)-4-((1S,3R)-3-methyl-1-(4-methyl-4H-1,2,4-triazol-3-yl)cyclobutyl)pyridin-2-yl)-6-(((S)-2-isopropyl-4-methylpiperazin-1-yl)methyl)-4-(trifluoromethyl)isoindolin-1-one] | 0.023 µM | 0.015 µM | (1.5x) | 8.7× | 0.0083 µM | 0.072 µM |  | 
Cn1cnnc1[C@@H](c1cc(Cl)cc(N2Cc3c(cc(CNC4(C)CCC4)cc3C(F)(F)F)C2=O)c1)C1COC1 (single isomer, unassigned) [Compound 408] | 0.78 µM |  |  | 1.8× | 0.44 µM | 0.77 µM | 0.54 µM | 1.4 x
CCNc1cc([C@]2(c3nncn3C)C[C@@H](C)C2)cc(N2Cc3c(cc(CNC4(C)CCC4)cc3C(F)F)C2=O)n1 [Compound 274, 4-(difluoromethyl)-2-(6-(ethylamino)-4-((1s,3s)-3-methyl-1-(4-methyl-4H-1,2,4-triazol-3-yl)cyclobutyl)pyridin-2-yl)-6-(((1-methylcyclobutyl)amino)methyl)isoindolin-1-one] | 0.0069 µM | 0.0075 µM | 0.91x | 2.0× | 0.0001 µM | 0.0002 µM |  | 
Cn1cnnc1[C@]1(c2cccc(N3Cc4c(cc(CNC5(C)CCC5)cc4C(F)(F)F)C3=O)c2)C[C@@]2(CCO2)C1 [Compound 109, 2-(3-((4s,6s)-6-(4-methyl-4H-1,2,4-triazol-3-yl)-1-oxaspiro[3.3]heptan-6-yl)phenyl)-6-(((1-methylcyclobutyl)amino)methyl)-4-(trifluoromethyl)isoindolin-1-one] | 0.22 µM | 0.047 µM | 4.6x | 7.0× | 0.021 µM | 0.14 µM |  | 
CCOc1cc(N2Cc3c(cc(CNC4(C)CCC4)cc3C(F)(F)F)C2=O)cc([C@]2(c3nncn3C)C[C@@H](OC)C2)c1 [Compound 203, 2-(3-ethoxy-5-((1s,3s)-3-methoxy-1-(4-methyl-4H-1,2,4-triazol-3-yl)cyclobutyl)phenyl)-6-(((1-methylcyclobutyl)amino)methyl)-4-(trifluoromethyl)isoindolin-1-one] | 0.038 µM | 0.018 µM | 2.1x | 3.3× | 0.0064 µM | 0.021 µM |  | 
CO[C@H]1C[C@](c2cccc(N3Cc4c(cc([C@H](N)C(C)(C)C)cc4C(F)(F)F)C3=O)c2)(c2nncn2C)C1 (single isomer, unassigned) [Compound 360] | 0.59 µM | 0.092 µM | 6.4x | 10× | 0.084 µM | 0.84 µM |  | 
CO[C@H]1C[C@](c2cccc(N3Cc4c(cccc4C(F)(F)F)C3=O)c2)(c2nncn2C)C1 [Compound 196, 2-(3-((1r,3r)-3-methoxy-1-(4-methyl-4H-1,2,4-triazol-3-yl)cyclobutyl)phenyl)-4-(trifluoromethyl)isoindolin-1-one] | 8.3 µM | 1.5 µM | 5.6x | 5.5× | 1.8 µM | 9.9 µM |  | 
CO[C@H]1C[C@](c2cccc(N3Cc4c(cc(CN5CCCCCC5)cc4C(F)(F)F)C3=O)c2)(c2nncn2C)C1 [Compound 490, 6-(azepan-1-ylmethyl)-2-(3-((1r,3r)-3-methxoy-1-(4-methyl-4H-1,2,4-triazol-3-yl)cyclobutyl)phenyl)-4-(trifluoromethyl)isoindolin-1-one] | 0.27 µM |  |  | 14× | 0.032 µM | 0.48 µM | 0.055 µM | 5.0 x
Cn1cnnc1[C@]1(c2cccc(N3Cc4c(cc(CNC5(C)CCC5)cc4C(F)(F)F)C3=O)c2)C[C@H](F)C1 [Compound 95, 2-(3-((1s,3s)-3-fluoro-1-(4-methyl-4H-1,2,4-triazol-3-yl)cyclobutyl)-phenyl)-6-(((1-methylcyclobutyl)amino)methyl)-4-(trifluoromethyl)isoindolin-1-one] | 0.021 µM | 0.012 µM | 1.7x | 7.5× | 0.002 µM | 0.015 µM |  | 
CO[C@H]1C[C@@](c2cc(N[C@@H](C)CC#N)cc(N3Cc4c(cc(CNC5(C)CCC5)cc4C(F)(F)F)C3=O)c2)(c2nncn2C)C1 (single isomer, unassigned) [Compound 233] | 0.2 µM | 0.04 µM | 5.0x | 7.1× | 0.021 µM | 0.15 µM |  | 
Cn1cnnc1[C@]1(c2cccc(N3Cc4c(cc(CNC5(C)CCC5)cc4C(F)(F)F)C3=O)c2)C[C@H](C#N)C1 [Compound 25, (1s,3s)-3-(4-methyl-4H-1,2,4-triazol-3-yl)-3-(3-(6-(((1-methylcyclobutyl)amino)methyl)-1-oxo-4-(trifluoromethyl)isoindolin-2-yl)phenyl)cyclobutanecarbonitrile] | 0.036 µM | 0.014 µM | (2.6x) | 5.4× | 0.004 µM | 0.022 µM |  | 
Cn1cnnc1C(c1cccc(N2Cc3c(cc(CNC4(C)CCC4)cc3C(F)(F)F)C2=O)c1)[C@H]1C[C@@H](CC#N)C1 (single isomer, unassigned) [Compound 365] | 0.0059 µM | 0.0048 µM | 1.2x | 6× | 0.00085 µM | 0.0072 µM |  | 
CC[C@H]1C[C@](c2cccc(N3Cc4c(Cl)cc(CNC5(C)CCC5)cc4C3=O)c2)(c2nncn2C)C1 [Compound 375, 4-chloro-2-(3-((1s,3r)-3-ethyl-1-(4-methyl-4H-1,2,4-triazol-3-yl)cyclobutyl)phenyl)-6-(((1-methylcyclobutyl)amino)methyl)isoindolin-1-one] | 0.016 µM | 0.0064 µM | 2.5x | 11× | 0.001 µM | 0.011 µM |  | 
CO[C@H]1C[C@](c2cc(C3CC3)cc(N3Cc4c(cc(CNC5(C)CCC5)cc4C(F)(F)F)C3=O)c2)(c2nncn2C)C1 [Compound 226, 2-(3-cyclopropyl-5-((1r,3r)-3-methoxy-1-(4-methyl-4H-1,2,4-triazol-3-yl)cyclobutyl)phenyl)-6-(((1-methylcyclobutyl)amino)methyl)-4-(trifluoromethyl)isoindolin-1-one] | 0.01 µM | 0.011 µM | 0.99x | 3.2× | 0.0013 µM | 0.0042 µM |  | 
COc1cc(N2Cc3c(cc(CNC4(C)CCC4)cc3C(F)(F)F)C2=O)cc([C@]2(c3nncn3C)C[C@@H](OC)C2)c1 [Compound 200, 2-(3-methoxy-5-((1s,3s)-3-methoxy-1-(4-methyl-4H-1,2,4-triazol-3-yl)cyclobutyl)phenyl)-6-(((1-methylcyclobutyl)amino)methyl)-4-(trifluoromethyl)isoindolin-1-one] | 0.04 µM | 0.024 µM | 1.7x | 2.4× | 0.008 µM | 0.019 µM |  | 
C[C@@H](NC1(C)CCC1)c1cc2c(c(C(F)(F)F)c1)CN(c1cccc(C3(c4nncn4C)CC(F)(F)C3)c1)C2=O (single isomer, unassigned) [Compound 174] | 0.0068 µM | 0.0085 µM | 0.80x | 2.8× | 0.0004 µM | 0.0011 µM |  | 
Cn1cnnc1[C@@H](c1cccc(N2Cc3c(cc(CNC4(C)CCC4)cc3C(F)(F)F)C2=O)c1)[C@H]1C[C@@H](C#N)C1 (single isomer, unassigned) [Compound 140] | 1.5 µM | 0.83 µM | 1.9x | 0.88× | 0.98 µM | 0.85 µM |  | 

From patent US12187709B2 (Genentech, Inc., priority 2021, dated 2025)
